ChEMBL document CHEMBL5465560, “Selectivity Literature for EUbOPEN Chemogenomic Library” (2024)

Tests used:
[1] = system: Phosphatidylinositol 4,5-bisphosphate 3-kinase catalytic subunit alpha isoform (Homo sapiens), P42336 [E542K]; test: (§1) Selectivity interaction (KinomeScan (DiscoverX)) EUB0001079a PIK3CA; settings: at 1 µM
[2] = system: Phosphatidylinositol 4,5-bisphosphate 3-kinase catalytic subunit alpha isoform (Homo sapiens), P42336 [M1043I]; test: as §1; settings: at 1 µM
[3] = system: Phosphatidylinositol 4,5-bisphosphate 3-kinase catalytic subunit alpha isoform (Homo sapiens), P42336 [C420R]; test: as §1; settings: at 1 µM
[4] = system: Phosphatidylinositol 4,5-bisphosphate 3-kinase catalytic subunit alpha isoform (Homo sapiens), P42336 [E545K]; test: as §1; settings: at 1 µM
[5] = system: Phosphatidylinositol 4,5-bisphosphate 3-kinase catalytic subunit alpha isoform (Homo sapiens), P42336 [H1047L]; test: as §1; settings: at 1 µM
[6] = system: Phosphatidylinositol 4,5-bisphosphate 3-kinase catalytic subunit alpha isoform (Homo sapiens), P42336 [Q546K]; test: as §1; settings: at 1 µM
[7] = system: Phosphatidylinositol 4,5-bisphosphate 3-kinase catalytic subunit alpha isoform (Homo sapiens), P42336 [I800L]; test: as §1; settings: at 1 µM
[8] = system: Phosphatidylinositol 4,5-bisphosphate 3-kinase catalytic subunit alpha isoform (Homo sapiens), P42336 [H1047Y]; test: as §1; settings: at 1 µM
[9] = system: Phosphatidylinositol 4,5-bisphosphate 3-kinase catalytic subunit alpha isoform (Homo sapiens), P42336 [E545A]; test: as §1; settings: at 1 µM
[10] = target: Phosphatidylinositol 4,5-bisphosphate 3-kinase catalytic subunit alpha isoform (Homo sapiens) (UniProt P42336); test: as §1; settings: at 1 µM
[11] = target: T1, Mitogen-activated protein kinase kinase kinase 15 (Homo sapiens) (UniProt Q6ZN16); test: Selectivity interaction (KinomeScan (DiscoverX)) EUB0001079a MAP3K15; settings: at 1 µM
T1 sequence (whole entry): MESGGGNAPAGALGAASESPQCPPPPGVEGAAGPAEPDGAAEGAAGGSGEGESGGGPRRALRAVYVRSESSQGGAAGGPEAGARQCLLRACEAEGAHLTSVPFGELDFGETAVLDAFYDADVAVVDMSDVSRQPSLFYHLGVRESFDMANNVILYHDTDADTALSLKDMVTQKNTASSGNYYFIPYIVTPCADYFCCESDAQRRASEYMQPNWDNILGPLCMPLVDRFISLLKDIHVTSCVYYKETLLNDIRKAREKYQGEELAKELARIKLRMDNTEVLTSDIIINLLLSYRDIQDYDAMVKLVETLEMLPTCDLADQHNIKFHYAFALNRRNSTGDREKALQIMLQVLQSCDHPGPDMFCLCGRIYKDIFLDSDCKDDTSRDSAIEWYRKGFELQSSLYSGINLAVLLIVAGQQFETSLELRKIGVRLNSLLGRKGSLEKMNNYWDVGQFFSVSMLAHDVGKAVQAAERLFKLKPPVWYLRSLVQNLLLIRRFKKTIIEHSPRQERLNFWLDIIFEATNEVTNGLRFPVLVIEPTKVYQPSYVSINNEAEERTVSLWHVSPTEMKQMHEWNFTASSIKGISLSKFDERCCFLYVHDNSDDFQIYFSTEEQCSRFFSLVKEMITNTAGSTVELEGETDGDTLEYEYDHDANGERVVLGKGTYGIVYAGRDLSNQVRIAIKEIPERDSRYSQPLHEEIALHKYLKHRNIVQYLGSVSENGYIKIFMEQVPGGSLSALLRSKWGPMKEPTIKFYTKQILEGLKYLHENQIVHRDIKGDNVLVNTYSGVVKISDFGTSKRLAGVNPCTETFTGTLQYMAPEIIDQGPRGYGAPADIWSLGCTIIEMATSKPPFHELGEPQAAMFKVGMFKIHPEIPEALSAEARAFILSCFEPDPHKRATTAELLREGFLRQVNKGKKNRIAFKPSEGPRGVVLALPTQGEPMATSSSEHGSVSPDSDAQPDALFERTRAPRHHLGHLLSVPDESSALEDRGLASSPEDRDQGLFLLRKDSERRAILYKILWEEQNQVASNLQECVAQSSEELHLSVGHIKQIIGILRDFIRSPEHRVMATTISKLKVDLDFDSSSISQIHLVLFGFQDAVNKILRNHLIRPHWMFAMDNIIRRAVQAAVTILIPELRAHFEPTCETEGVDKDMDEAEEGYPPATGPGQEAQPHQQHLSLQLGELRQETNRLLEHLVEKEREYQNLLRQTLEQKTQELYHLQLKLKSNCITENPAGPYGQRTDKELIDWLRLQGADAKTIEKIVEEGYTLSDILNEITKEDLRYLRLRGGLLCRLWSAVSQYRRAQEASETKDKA

[12] = target: Tyrosine-protein kinase JAK1 (Homo sapiens, UniProt P23458); test: Selectivity interaction (Kinase panel (KiNativ target engagement assay in Jurkat cells)) EUB0001635a JAK1; format: cell-based; settings: Selectivity number of off-targets 0.0, Selectivity number of targets 233.0, Source Knowledge https://www.sciencedirect.com/science/article/pii/S2451945619300674?via%3Dihub, at 1 µM
[13] = target: Tyrosine-protein kinase ABL1 (Homo sapiens, UniProt P00519); settings: at 10 µM
[14] = target: Tyrosine-protein kinase receptor Tie-1 (Homo sapiens) (UniProt P35590); test: Selectivity interaction (KinomeScan (DiscoverX)) EUB0001619a TIE1; settings: at 1 µM
[15] = target: cAMP-dependent protein kinase catalytic subunit beta (Homo sapiens) (UniProt P22694); test: Selectivity interaction (KinomeScan (DiscoverX)) EUB0000695a PRKACB; settings: at 100 nM
[16] = target: T2, Dual specificity mitogen-activated protein kinase kinase 5 (Homo sapiens) (UniProt Q13163); test: Selectivity interaction (LanthaScreen Eu Kinase Binding Assay) EUB0001632a MAP2K5; settings: at 10 µM
T2 sequence (whole entry): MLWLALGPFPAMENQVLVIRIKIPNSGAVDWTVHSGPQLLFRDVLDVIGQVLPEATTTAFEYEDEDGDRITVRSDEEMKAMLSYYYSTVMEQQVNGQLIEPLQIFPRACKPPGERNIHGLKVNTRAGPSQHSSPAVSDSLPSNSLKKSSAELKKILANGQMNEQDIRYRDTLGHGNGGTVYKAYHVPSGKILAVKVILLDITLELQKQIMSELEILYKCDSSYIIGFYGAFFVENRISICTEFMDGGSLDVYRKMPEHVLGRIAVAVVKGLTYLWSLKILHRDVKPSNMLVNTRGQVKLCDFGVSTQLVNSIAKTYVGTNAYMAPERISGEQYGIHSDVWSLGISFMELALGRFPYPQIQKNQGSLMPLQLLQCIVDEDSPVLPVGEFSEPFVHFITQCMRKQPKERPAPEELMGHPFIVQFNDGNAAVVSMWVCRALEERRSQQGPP

Chain of Phosphatidylinositol 4,5-bisphosphate 3-kinase catalytic subunit alpha isoform (Homo sapiens), P42336 [E545K] (P42336 whole entry E545K, canonical isoform): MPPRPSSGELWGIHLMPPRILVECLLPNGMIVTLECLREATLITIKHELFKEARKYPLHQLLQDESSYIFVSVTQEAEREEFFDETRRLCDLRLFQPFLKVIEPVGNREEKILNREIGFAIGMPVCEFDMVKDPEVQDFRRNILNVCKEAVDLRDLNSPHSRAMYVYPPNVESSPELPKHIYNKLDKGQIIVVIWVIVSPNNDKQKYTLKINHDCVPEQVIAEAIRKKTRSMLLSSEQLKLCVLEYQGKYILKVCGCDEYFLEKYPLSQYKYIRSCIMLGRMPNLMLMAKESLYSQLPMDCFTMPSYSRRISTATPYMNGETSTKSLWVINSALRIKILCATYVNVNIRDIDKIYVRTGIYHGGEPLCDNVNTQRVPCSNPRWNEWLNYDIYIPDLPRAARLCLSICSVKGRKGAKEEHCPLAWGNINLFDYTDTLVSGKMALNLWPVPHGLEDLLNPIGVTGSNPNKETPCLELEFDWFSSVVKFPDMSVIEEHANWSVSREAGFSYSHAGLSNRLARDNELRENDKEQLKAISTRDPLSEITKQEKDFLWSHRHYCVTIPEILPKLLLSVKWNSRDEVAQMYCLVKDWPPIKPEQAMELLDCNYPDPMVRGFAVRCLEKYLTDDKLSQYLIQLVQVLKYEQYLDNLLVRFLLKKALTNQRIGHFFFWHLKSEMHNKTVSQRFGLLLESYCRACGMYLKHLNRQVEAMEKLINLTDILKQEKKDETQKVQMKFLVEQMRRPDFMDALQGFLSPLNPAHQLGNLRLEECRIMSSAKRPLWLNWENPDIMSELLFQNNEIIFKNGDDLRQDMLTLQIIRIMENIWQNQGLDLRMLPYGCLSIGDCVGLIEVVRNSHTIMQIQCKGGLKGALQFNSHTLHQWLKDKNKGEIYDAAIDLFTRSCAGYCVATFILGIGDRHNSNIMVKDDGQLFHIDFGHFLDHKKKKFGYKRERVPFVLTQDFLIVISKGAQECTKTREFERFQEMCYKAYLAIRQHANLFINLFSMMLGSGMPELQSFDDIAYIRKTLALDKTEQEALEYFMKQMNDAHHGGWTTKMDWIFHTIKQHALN
Chain of Phosphatidylinositol 4,5-bisphosphate 3-kinase catalytic subunit alpha isoform (Homo sapiens), P42336 [E542K] (P42336 whole entry E542K, canonical isoform): as the sequence (P42336 whole entry E545K, canonical isoform) above, with E542K, K545E counted along it
Chain of Tyrosine-protein kinase JAK1 (P23458 whole entry): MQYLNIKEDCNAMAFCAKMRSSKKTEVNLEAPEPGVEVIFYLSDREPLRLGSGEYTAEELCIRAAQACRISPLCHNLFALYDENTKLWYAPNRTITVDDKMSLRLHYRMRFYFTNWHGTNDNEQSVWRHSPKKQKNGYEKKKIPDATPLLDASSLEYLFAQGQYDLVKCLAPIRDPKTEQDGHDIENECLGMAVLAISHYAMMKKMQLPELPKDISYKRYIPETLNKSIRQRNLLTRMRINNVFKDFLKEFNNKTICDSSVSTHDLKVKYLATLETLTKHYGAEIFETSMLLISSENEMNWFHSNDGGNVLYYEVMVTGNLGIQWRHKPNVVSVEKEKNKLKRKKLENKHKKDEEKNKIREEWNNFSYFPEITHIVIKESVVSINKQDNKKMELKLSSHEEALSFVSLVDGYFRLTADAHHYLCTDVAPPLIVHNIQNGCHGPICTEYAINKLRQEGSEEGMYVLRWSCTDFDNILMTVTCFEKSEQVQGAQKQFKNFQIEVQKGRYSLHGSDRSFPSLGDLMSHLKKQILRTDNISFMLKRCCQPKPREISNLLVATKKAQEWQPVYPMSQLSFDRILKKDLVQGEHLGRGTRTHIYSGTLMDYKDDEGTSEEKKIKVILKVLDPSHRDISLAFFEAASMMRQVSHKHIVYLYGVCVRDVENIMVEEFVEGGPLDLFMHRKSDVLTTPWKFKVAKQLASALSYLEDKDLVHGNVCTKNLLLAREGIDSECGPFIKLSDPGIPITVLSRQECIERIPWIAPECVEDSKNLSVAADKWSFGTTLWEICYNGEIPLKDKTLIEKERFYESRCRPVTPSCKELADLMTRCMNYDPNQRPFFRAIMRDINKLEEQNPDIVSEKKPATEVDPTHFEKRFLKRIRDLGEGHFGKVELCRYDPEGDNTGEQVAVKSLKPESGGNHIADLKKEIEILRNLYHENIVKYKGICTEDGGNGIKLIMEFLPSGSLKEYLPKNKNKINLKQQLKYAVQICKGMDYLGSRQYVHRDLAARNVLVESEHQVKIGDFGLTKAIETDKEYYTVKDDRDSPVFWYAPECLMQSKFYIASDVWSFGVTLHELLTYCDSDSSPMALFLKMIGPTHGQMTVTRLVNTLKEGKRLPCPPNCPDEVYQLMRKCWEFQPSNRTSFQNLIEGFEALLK
Chain of Phosphatidylinositol 4,5-bisphosphate 3-kinase catalytic subunit alpha isoform (Homo sapiens), P42336 [H1047Y] (P42336 whole entry H1047Y, canonical isoform): as the sequence (P42336 whole entry E545K, canonical isoform) above, with K545E, H1047Y counted along it

Nc1cnc(N2CCc3cc(S(=O)(=O)Nc4c(F)cc(Cl)cc4F)cc(N4CCCC4=O)c32)nc1 [TP-020n]
% of control [1]: 72%
% of control [2]: 100%
% of control [3]: 84%
% of control [4]: 100%
% of control [5]: 60%
% of control [6]: 78%
% of control [7]: 80%
% of control [8]: 100%
% of control [9]: 100%
% of control [10]: 76%
% of control [11]: 100%

C=CC(=O)Nc1ccc(C(=O)Nc2[nH]nc3c2CN(C(=O)N[C@H](CN(C)C)c2ccccc2)C3(C)C)cc1
% of engagement [12]: 7.9%

CCN(CC)CCCCNc1ncc2cc(-c3cc(OC)cc(OC)c3)c(NC(=O)NC(C)(C)C)nc2n1
% of control [13]: 100%

N#Cc1cccc(-c2c[nH]c3ncnc(N4CCOCC4)c23)c1
% of control [14]: 80%

Cc1cc(F)c(C(=O)Nc2cccc(-c3nncn3C(C)C)n2)cc1-n1cnc(C2CC2)c1
% of control [15]: 100%

Cn1cc(-n2cnc3c(NCc4nc5cc(Cl)c(Cl)cc5[nH]4)nc(N4CCOCC4)nc32)cn1
% of inhibition [16]: 0.023%
